According to EP2377861B1, “Water-soluble bis-triazinyl-pyridines, bipyridines and terpyridines, synthesis and use of same” (Karlsruher Institut für Technologie, priority 2010, dated 2011):

Key:
[1] = Extraction with TODGA from HNO3, complexing agent in aqueous phase, distribution ratio by gamma spectrometry; details: for DEu(III) / DAm(III): 0.2 mol/L TODGA + 5 % vol. 1-Octanol in Kerosin; for SFEu(III)/Am(III): separation factor DEu(III)/DAm(III)
Description: (§1) D2EHPA bestimmt. Aus allen Versuchen wurden die Verteilungsverhältnisse (Verhältnis der organischen zur wässrigen Konzentration) von Am(III) und Eu(III) mittels Gamma-Spektrometrie bestimmt. Die Berechnung der Verteilungsverhältnisse DM ergibt sich aus den Zählraten des Gammazählers, welcher die radioaktiven ^241Am (III) - und ^152Eu(III) - Isotope in volumengleichen Proben der wässrigen bzw. der organischen Phase erfasst gem. der Gleichung DM=[M]org/[M]aq, wobei die Konzentration des Metalls M aus [M]=Zählrate/Volumen berechnet wird.
Es wurden […] und ^152Eu(III) (je ca. 1 kBq/mL) aus 0.09 / 0.18 / 0.44 / 0.88 / 1.8 mol/L HNO3 in eine organische Phase bestehend aus (0.2 mol/L TODGA + 5 % vol. 1-Octanol in Kerosin) extrahiert.
Es wurden ^241Am(III) und ^152Eu(III) (je ca. 1 kBq/mL) aus 0.5 mol/L HNO3 in eine organische Phase bestehend aus (0.2 mol/L TODGA + 5 % vol. 1-Octanol in Kerosin) extrahiert. Die wässrige Phase enthielt entweder 0 mmol/L oder 10 mmol/L SO3-Ph-BTBP.

[2] = Extraction with D2EHPA from HNO3, complexing agent in aqueous phase, distribution ratio by gamma spectrometry; details: for DAm(III) / DEu(III): 10 mmol/L SO3-Ph-BTP in aqueous phase, 0.1 mol/L D2EHPA in Kerosin; for SFEu(III)/Am(III): separation factor DEu(III)/DAm(III), D2EHPA
Description: as §1
Es wurden ^241Am(III) und ^152Eu(III) (je ca. 1 kBq/mL) aus 0.045 / 0.09 / 0.18 / 0.44 mol/L HNO3 in eine organische Phase bestehend aus (0.1 mol/L D2EHPA in Kerosin) extrahiert.

[3] = Back-extraction from loaded TODGA organic phase (simulated PUREX raffinate) into aqueous complexing agent solution; details: after back-extraction into 10 mmol/L SO3-Ph-BTP in water
Description: as §1
Einem inaktiven Simulat eines PUREX-Raffinats wurden ^241Am(III) und ^I52Eu(III) (je ca. 1 kBq/mL) zugegeben. Es wurde in eine organische Phase bestehend aus (0.2 mol/L TODGA + 5 % vol. 1-Octanol in Kerosin) extrahiert.

Solubility in water = assay type: physicochemical
[4] = loaded 0.2 mol/L TODGA + 5 % vol. 1-Octanol in Kerosin
[5] = 10 mmol/L SO3-Ph-BTBP in aqueous phase, 0.5 mol/L HNO3

Substance: 2,6-Bis(5,6-di(sulfophenyl)-1,2,4-triazin-3-yl)pyridine [SO3-Ph-BTP]
- DEu(III) ([1]; 10 mmol/L SO3-Ph-BTP in aqueous phase, 0,09 mol/L HNO3): 1.2
- DEu(III) ([1]; 10 mmol/L SO3-Ph-BTP in aqueous phase, 0,18 mol/L HNO3): 11.9
- DEu(III) ([1]; 10 mmol/L SO3-Ph-BTP in aqueous phase, 0,44 mol/L HNO3): 180
- DEu(III) ([1]; 10 mmol/L SO3-Ph-BTP in aqueous phase, 0,88 mol/L HNO3): > 10^3
- DEu(III) ([1]; 10 mmol/L SO3-Ph-BTP in aqueous phase, 1,8 mol/L HNO3): > 10^3
- Trennfaktor SFEu(III)/Am(III) ([1]; 10 mmol/L SO3-Ph-BTP, ca. 0.1-0.5 mol/L HNO3, TODGA): 500-1000
- DAm(III) ([1]; 10 mmol/L complexing agent in aqueous phase, 0,09 mol/L HNO3): 1.1·10^-3
- DAm(III) ([1]; 10 mmol/L complexing agent in aqueous phase, 0,18 mol/L HNO3): 0.014
- DAm(III) ([1]; 10 mmol/L complexing agent in aqueous phase, 0,44 mol/L HNO3): 0.35
- DAm(III) ([1]; 10 mmol/L complexing agent in aqueous phase, 0,88 mol/L HNO3): 4.5
- DAm(III) ([1]; 10 mmol/L complexing agent in aqueous phase, 1,8 mol/L HNO3): 90
- SFEu(III)/Am(III) ([1]; 10 mmol/L complexing agent, 0,09 mol/L HNO3, TODGA): 1100
- SFEu(III)/Am(III) ([1]; 10 mmol/L complexing agent, 0,18 mol/L HNO3, TODGA): 850
- SFEu(III)/Am(III) ([1]; 10 mmol/L complexing agent, 0,44 mol/L HNO3, TODGA): 510
- SFEu(III)/Am(III) ([1]; 10 mmol/L complexing agent, 0,88 mol/L HNO3, TODGA): > 220
- SFEu(III)/Am(III) ([1]; 10 mmol/L complexing agent, 1,8 mol/L HNO3, TODGA): > 11
- DAm(III) ([2]; 0.045 mol/L HNO3): 1.10^-3
- DEu(III) ([2]; 0.045 mol/L HNO3): 5.3
- DAm(III) ([2]; 0.09 mol/L HNO3): 4.10^-4
- DEu(III) ([2]; 0.09 mol/L HNO3): 1.4
- DAm(III) ([2]; 0.18 mol/L HNO3): 5.10^-5
- DEu(III) ([2]; 0.18 mol/L HNO3): 0.37
- DAm(III) ([2]; 0.44 mol/L HNO3): < d.l.
- DEu(III) ([2]; 0.44 mol/L HNO3): 0.06
- Trennfaktor SFEu(III)/Am(III) ([2]; 10 mmol/L SO3-Ph-BTP, D2EHPA in Kerosin): > 3000
- SFEu(III)/Am(III) ([2]; 10 mmol/L SO3-Ph-BTP, 0.045 mol/L HNO3): 5200
- SFEu(III)/Am(III) ([2]; 10 mmol/L SO3-Ph-BTP, 0.09 mol/L HNO3): 3400
- SFEu(III)/Am(III) ([2]; 10 mmol/L SO3-Ph-BTP, 0.18 mol/L HNO3): 7000
- DAm(III) [3, 4]: 0.059
- DEu(III) [3, 4]: 49
- Trennfaktor SFEu(III)/Am(III) ([3]; loaded TODGA phase): 830

Substance: 6,6'-Bis(5, 6-di(sulfophenyl)-1, 2, 4-triazin-3-yl)-2,2'-bipyridine [SO3-Ph-BTBP]
- Löslichkeit in Wasser (Solubility in water): > 0.1 mol/L
- DAm(III) [1, 5]: 0.33
- DEu(III) [1, 5]: 150
- SFEu(III)/Am(III) ([1]; 10 mmol/L SO3-Ph-BTBP, 0.5 mol/L HNO3, TODGA): 450
